Assay results: patent US20090176817A1, “Method of Treatment of Diarrhea-Predominant Irritable Bowel Syndrome in a Subject” (priority 2005, published 2009)

How the values were obtained:
CYP2C19 = settings: hepatocytes
clinical [1] = settings: both, human, in vivo
Procedure: Diurnal variations in cilansetron pharmacokinetics have been evaluated in a randomized, double-blind, placebo-controlled, 2-way crossover study in 9 male and 9 female healthy subjects, aged 21 to 39 years. Subjects were randomized to receive 2 treatments (cilansetron 16 mg tablet and placebo) during the 2 treatment periods. During each treatment period, subjects received a single dose of their assigned treatment on the first day (Day 1), after which they received the same treatment TID for 4 days (Days 2-5). There was a 10-day washout period between treatment periods. Subjects were fasted for at least 2 hours before and following each dose, and heavy physical activity was restricted. Serial blood samples for the measurement of multiple-dose pharmacokinetics of cilansetron were collected up to 24 hours postdose on Day 5.

[2] = tested on: diarrhea-predominant IBS subjects; assay: Study S241.3.011: interruption of activities assessment; assay type: in vivo, human
Source text: Studies S24 1.3.OO6, S24 1.3.0 1 1, and S24 1.3.009 used the following efficacy measurements: • The subjects answered the following three questions with “yes” or “no” using a phone diary at the end of each week: • a) During the last week, did you experience adequate relief of your IBS symptoms, such as abdominal pain, abdominal discomfort, abnormal bowel habits? • b) During the last week, did you experience adequate relief of your abdominal pain and/or discomfort? • c) During the last week, did you experience adequate relief of your abnormal bowel habits? • The subjects rated the following symptoms using the phone diary at the end of each day: • abdominal pain/discomfort (five-point scale); • stool consistency (seven-point Bristol Stool Scale); • stool frequency (number of bowel movements each day); • urgency (five-point scale); • straining (yes or no); • feeling of incomplete defecation (yes or no); • bloating or feeling of abdominal distension (five-point scale). • In Studies S241 A006 and S241.3.009, subjects completed the IBS-QOL Survey at Baseline (Day 1) and at the end of treatment. In Study S24 1.3.0 1 1, subjects completed the IBS-QOL Survey at Baseline (Day 1), at the end of the three-month treatment period, and at the end of rerandomized treatment.
Other secondary efficacy parameters for all three studies included: • Responder rate for the weekly diary questions on adequate relief at each month, where a responder for a month (monthly responder) was defined as a subject who answered the weekly question with “yes” at least twice for that month. The responder rate was the percentage of responders within a treatment group. The all-month responder rate for the weekly diary questions on adequate relief was also evaluated, where an all-month responder was defined as a subject who answered the weekly question with “yes” at least twice for each month. The all-month responder rate was the percentage of all-month responders within a treatment group; • Adequate relief rate for the weekly diary questions was calculated for each subject as the number of weekly assessments with adequate relief (“yes”) divided by the total number of weekly assessments; • Percentage of subjects with adequate relief for the weekly diary questions at each week; • Daily diary questions regarding abdominal pain/discomfort (five-point scale), stool consistency (seven-point scale), stool frequency (number of bowel movements each day), straining (yes or no), urgency (five-point scale), feeling of incomplete evacuation (yes or no), and bloating or feeling of abdominal distention (five-point scale); • QOL data assessed by the IBS-QOL questionnaire; and • Question to determine the interruption of activities.

CYP3A4 = settings: hepatocytes
clinical [3] = settings: male, human, in vivo
Procedure: The single- and multiple-dose pharmacokinetics of cilansetron 8 mg administered intravenously have been studied in a randomized, double-blind, placebo controlled, parallel group study in 12 male subjects (10 subjects received cilansetron 8 mg and 2 received placebo, administered as a 30-minute infusion). […] Doses on pharmacokinetic days were administered under fasted conditions. […] Renal elimination was again observed to be negligible (≦1% of dose).

clinical [4] = settings: human, in vivo; for half-life: T½
Procedure: Two randomized, double-blind, placebo controlled, balanced incomplete block design, crossover studies evaluated the single- and multiple-dose pharmacokinetics of oral cilansetron over a 8 mg to 32 mg dose range. In both studies, subjects were randomized to receive two of three treatments during 2 treatment periods. In one study (12 male and 13 female subjects, aged 23 to 36 years), subjects received 8 mg cilansetron, 16 mg cilansetron, or placebo, while in another study (12 males and 13 females, aged 23 to 41 years), subjects received 16 mg cilansetron, 32 mg cilansetron, or placebo. During each treatment period, subjects received a single dose of their assigned treatment on the first day, followed by a 3-day washout, after which they received the same treatment TID for 5 days.
There was a 5-6 day washout period between treatment periods. Doses on the mornings of pharmacokinetic days were administered under fasted conditions. Serial blood sampling and urine collection was performed up to 12 hours following morning dosing on the first day (single dose) and on the last multiple dosing day of each treatment period, and cilansetron pharmacokinetic parameters were evaluated.
In two randomized, double-blind, placebo controlled, balanced incomplete block design, crossover studies evaluating the single- and multiple-dose pharmacokinetics of oral cilansetron over a 8 mg to 32 mg dose range, subjects were randomized to receive two of three treatments during 2 treatment periods. In Study S.241.1.101; (12 male and 13 female subjects, aged 23 to 36 years), subjects received 8 mg cilansetron, 16 mg cilansetron, or placebo, while in Study S.24 1.1.102; (12 males and 13 females, aged 23 to 41 years), subjects received 16 mg cilansetron, 32 mg cilansetron, or placebo. During each treatment period, subjects received a single dose of their assigned treatment on the first day, followed by a 3-day washout, after which they received the same treatment TID for 5 days. There was a 5-6 day washout period between treatment periods. Doses on the mornings of pharmacokinetic days were administered under fasted conditions. Serial blood sampling and urine collection was performed up to 12 hours following morning dosing on the first day (single dose) and on the last multiple dosing day of each treatment period, and cilansetron pharmacokinetic parameters were evaluated.

[5] = in vivo
Procedure: Time to reach steady state following dosing with cilansetron 2 mg TID has been evaluated in a study in 9 healthy male and female subjects.

clinical [6] = settings: human, in vivo; for AUC: AUC (0-τ)
Procedure: Subjects were treated with a single oral dose of cilansetron 8 mg (tablet) on Day 1, followed by 8 mg TID for 5 days (Days 2-6) and a single 8 mg dose on the morning of Day 7. Young subjects ranged in age from 19-45 years, and elderly from 66-79 years. Serial blood samples were collected up to 24 hours postdose on Days 1 and 7, and cilansetron pharmacokinetic parameters were calculated. Doses on pharmacokinetic sampling days were administered under fasted conditions.
Young subjects ranged in age from 19-45 years, and elderly from 66-79 years. Serial blood samples were collected up to 24 hours postdose on Days 1 and 7, and cilansetron pharmacokinetic parameters were evaluated. Doses on pharmacokinetic sampling days were administered under fasted conditions.

Cc1nccn1C[C@H]1CCc2c(c3cccc4c3n2CCC4)C1=O [Cilansetron, (R)-(−)-4,5,6,8,9,10-hexahydro-10-[(2-methyl-1H-imidazol-1-yl)methyl]-11H-pyrido-[3,2,1-jk]-carbazol-11-one]
Increase of CYP2C19 (CYP2C19): about half of that caused by phenobarbital
Cmax (clinical [1]; Cmax): 76.9 ng/mL
Tmax (clinical [1]; Tmax): 1 h
Subjects “not at all or rarely” bothered, rerandomization Endpoint ([2]; C/C): 54%
Subjects “not at all or rarely” bothered, rerandomization Endpoint ([2]; C/P): 37%
Subjects “not at all or rarely” bothered by IBS symptoms ([2]; Endpoint, 3-month period): 46%
Subjects “not at all or rarely” bothered, rerandomization Endpoint ([2]; P/C): 50%
CYP3A4 mRNA induction (CYP3A4): did not induce
Intersubject % CV for AUC (clinical [3]): 31-34%
Intrasubject % CV (clinical [3]): 18%
Renal elimination (clinical [3]): ≤ 1 % of dose
% Dose (urine) (clinical [3]; iv): 0.44 (70) %
Linearity Ratio (clinical [3]; iv): 118%
DN-AUC (clinical [3]; iv, 8 mg): 22.8 (31) ng · h/mL
AUC (clinical [3]; iv, 8 mg, AUC): 182 ng·h/mL
clearance (clinical [3]; iv, 8 mg, CL): 792 mL/min
CL renal (clinical [3]; iv, 8 mg, CLr): 3.29 mL/min
clearance (clinical [3]; iv, 8 mg, Systemic plasma clearance): 800 mL/min
half-life (clinical [3]; iv, 8 mg, T½): 1.7 h
half-life (clinical [4]; both, 16 mg): 1.35 h
Tmax (clinical [4]; both, 32 mg): 1 h
AUC (clinical [4]; both, 32 mg): 451 ng·h/mL
Cmax (clinical [4]; both, 32 mg): 216 ng/mL
half-life (clinical [4]; both, 32 mg): 1.22 h
Tmax (clinical [4]; female, 32 mg): 1 h
AUC (clinical [4]; female, 32 mg): 405 ng·h/mL
Cmax (clinical [4]; female, 32 mg): 210 ng/mL
half-life (clinical [4]; female, 32 mg): 1.08 h
Tmax (clinical [4]; female, po, 16 mg): 1 h
Tmax (clinical [4]; female, po, 32 mg): 1 h
AUC (clinical [4]; female, po, 32 mg): 433 ng·h/mL
Cmax (clinical [4]; female, po, 32 mg): 270 ng/mL
half-life (clinical [4]; female, po, 32 mg): 1.01 h
Tmax (clinical [4]; male, 32 mg): 1 h
AUC (clinical [4]; male, 32 mg): 354 ng·h/mL
Cmax (clinical [4]; male, 32 mg): 140 ng/mL
half-life (clinical [4]; male, 32 mg): 1.4 h
Tmax (clinical [4]; male, po, 16 mg): 1 h
Tmax (clinical [4]; male, po, 32 mg): 1.5 h
AUC (clinical [4]; male, po, 32 mg): 469 ng·h/mL
Cmax (clinical [4]; male, po, 32 mg): 161 ng/mL
half-life (clinical [4]; male, po, 32 mg): 1.44 h
Steady state achieved by [5]: third day
AUC(0-inf) (clinical [6]; female, 8 mg): 289 ng·h/mL
AUC (clinical [6]; female, 8 mg): 247 ng·h/mL
AUC(0-inf) (clinical [6]; female): 178 ng·h/mL
AUC (clinical [6]; female): 263 ng·h/mL
Cmax (clinical [6]; female): 95.1 ng/mL
Tmax (clinical [6]; female): 0.88 h
AUC(0-inf) (clinical [6]; male): 228 ng·h/mL
AUC (clinical [6]; male): 196 ng·h/mL
Cmax (clinical [6]; male): 58.8 ng/mL
Tmax (clinical [6]; male): 1.31 h
Vd/F (clinical [6]; male, Vz/F): 243 L
